Data reported in patent US4647687A, “Halogenated sulphides, process for their preparation and their use in microbicidal agents” (Bayer Aktiengesellschaft, priority 1983, dated 1987).
≈ marks a conversion by molar mass, not a printed value. Like-named read-outs stand apart in the source and are kept apart here.

Legend:
slime organisms = test: Action against slime organisms (MIC in Allen's nutrient solution); type: cell-based; conditions: 336 h, about 10^6 germs/ml, 3 weeks at room temperature
Staphylococcus aureus = test: Action against bacteria (MIC in broth agar); type: cell-based; conditions: 28° C., 60 to 70% relative humidity, 2 weeks
Eschercihia coli = test: Action against bacteria (MIC in broth agar); type: cell-based; conditions: Escherichia coli, 28° C., 60 to 70% relative humidity, 2 weeks
Chaetomium globosum = test: MIC against fungi, beerwort/peptone agar; conditions: 28° C., 60 to 70% relative humidity, 2 weeks
Sclerophoma pityophila = test: MIC against fungi, beerwort/peptone agar; conditions: 28° C., 60 to 70% relative humidity, 2 weeks
Aspergillus niger = test: MIC against fungi, beerwort/peptone agar; conditions: 28° C., 60 to 70% relative humidity, 2 weeks
Aureobasidium pullulans = test: MIC against fungi, beerwort/peptone agar
Penicillium glaucum = test: MIC against fungi, beerwort/peptone agar; conditions: 28° C., 60 to 70% relative humidity, 2 weeks
Lentinus tigrinus = test: MIC against fungi, beerwort/peptone agar; conditions: 28° C., 60 to 70% relative humidity, 2 weeks
[1] = test system: microbes (bacteria, yeasts and moulds) isolated from microbially decayed cooling lubricant use dilutions; test: Testing as a preservative for cooling lubricants; conditions: 1% active compound in mineral oil cooling lubricant; 5% strength use dilutions contaminated daily for 3 months
Method: 1% of the active compound is added, as a preservative, to a cooling lubricant based on mineral oil. 5% strength use dilutions of the cooling lubricant are massively contaminated daily for 3 months with microbes (bacteria, yeasts and moulds) isolated from microbially decayed cooling lubricant use dilutions.

Alternaria tenuis = test: MIC against fungi, beerwort/peptone agar; conditions: 28° C., 60 to 70% relative humidity, 2 weeks
Trichoderma viride = test: MIC against fungi, beerwort/peptone agar
Coniophora puteana = test: MIC against fungi, beerwort/peptone agar; conditions: 28° C., 60 to 70% relative humidity, 2 weeks
Polyporus versicolor = test: MIC against fungi, beerwort/peptone agar
[2] = 28° C., 60 to 70% relative humidity, 2 weeks

Row | Structure (SMILES) | MIC (slime organisms) [µg/mL] | MIC (Staphylococcus aureus; 336 h, read-out: MIC) [µg/mL] | MIC (Eschercihia coli; 336 h, read-out: MIC) [µg/mL] | MIC (Chaetomium globosum; 336 h) [µg/mL] | MIC (Sclerophoma pityophila; Sydowia polyspora, 336 h) [µg/mL] | MIC (Aspergillus niger; 336 h) [µg/mL] | MIC (Aureobasidium pullulans; 336 h) [µg/mL] | MIC (Penicillium glaucum; Penicillium, 336 h) [µg/mL] | MIC (Lentinus tigrinus; 336 h) [µg/mL] | MIC (Trichoderma viride; 336 h) [µg/mL] | MIC (Polyporus versicolor; Trametes versicolor, 336 h) [µg/mL] | MIC (Penicillium glaucum) [µg/mL] | MIC (Alternaria tenuis) [µg/mL] | MIC (Coniophora puteana) [µg/mL] | also measured
1 | N#CC=C(Cl)SCCC#N [Example 1, 1-chloro-2-cyanovinyl 2-cyano-ethyl sulphide] | 0.15 (≈ 0.869 µM) | – | – | – | – | – | – | – | – | – | – | – | – | – | –
2 | N#CCCSC(Cl)=C(Cl)C#N [Example 2, 1,2-dichloro-2-cyano-vinyl 2-cyano-ethyl sulphide] | 2 (≈ 9.66 µM) | 35 (≈ 169 µM) | 200 (≈ 966 µM) | < 20 | 20 (≈ 96.6 µM) | < 20 | – | – | – | – | – | – | – | – | –
3 | N#CC(Cl)=CSC(Cl)=C(Cl)C#N [Example 5, 1,2-dichloro-2-cyano-vinyl 2-chloro-2-cyano-vinyl sulphide] | 0.35 (≈ 1.46 µM) | 10 (≈ 41.8 µM) | 20 (≈ 83.5 µM) | 2 (≈ 8.35 µM) | 0.5 (≈ 2.09 µM) | 2 (≈ 8.35 µM) | 5 (≈ 20.9 µM) | 1 (≈ 4.18 µM) | 0.5 (≈ 2.09 µM) | 10 (≈ 41.8 µM) | 1 (≈ 4.18 µM) | – | – | – | state of the use dilutions at the end of the testing period [1]: free from germs; MIC (Alternaria tenuis; Alternaria alternata, 336 h): 20 µg/mL (≈ 83.5 µM); MIC (Coniophora puteana; 336 h): < 0.1 µg/mL

The next lines start with results.

Row | MIC (slime organisms) [µg/mL] | MIC (Staphylococcus aureus; 336 h, read-out: MIC) [µg/mL] | MIC (Eschercihia coli; 336 h, read-out: MIC) [µg/mL] | MIC (Chaetomium globosum; 336 h) [µg/mL] | MIC (Sclerophoma pityophila; Sydowia polyspora, 336 h) [µg/mL] | MIC (Aspergillus niger; 336 h) [µg/mL] | MIC (Aureobasidium pullulans; 336 h) [µg/mL] | MIC (Penicillium glaucum; Penicillium, 336 h) [µg/mL] | MIC (Lentinus tigrinus; 336 h) [µg/mL] | MIC (Trichoderma viride; 336 h) [µg/mL] | MIC (Polyporus versicolor; Trametes versicolor, 336 h) [µg/mL] | MIC (Penicillium glaucum) [µg/mL] | MIC (Alternaria tenuis) [µg/mL] | MIC (Coniophora puteana) [µg/mL] | Structure (SMILES) | also measured
4 | – | < 20 | 50 (≈ 183 µM) | 2 (≈ 7.3 µM) | 0.5 (≈ 1.83 µM) | 2 (≈ 7.3 µM) | 1 (≈ 3.65 µM) | – | 0.5 (≈ 1.83 µM) | 10 (≈ 36.5 µM) | 1 (≈ 3.65 µM) | 1 (≈ 3.65 µM) | 2 (≈ 7.3 µM) | < 0.1 | N#CC(Cl)=C(Cl)SC(Cl)=C(Cl)C#N [Example 8, bis-(1,2-dichloro-2-cyano-vinyl) sulphide] | –
5 | – | – | – | – | – | – | – | – | – | – | – | 2.5 (≈ 9.13 µM) | 0.75 (≈ 2.74 µM) | 0.5 (≈ 1.83 µM) | N#CC(Cl)=C(Cl)SC(Cl)=C(Cl)C#N [Example 9, bis-(1,2-dichloro-2-cyano-vinyl) sulphide] | MIC (Aureobasidium pullulans; [2]): 1 µg/mL (≈ 3.65 µM); MIC (Lentinus tigrinus): 1 µg/mL (≈ 3.65 µM); MIC (Staphylococcus aureus): 10 µg/mL (≈ 36.5 µM); MIC (Eschercihia coli): 25 µg/mL (≈ 91.3 µM); MIC (Chaetomium globosum): 2.5 µg/mL (≈ 9.13 µM); MIC (Trichoderma viride; [2]): 10 µg/mL (≈ 36.5 µM); MIC (Polyporus versicolor; Polyporus versicolor, 28° C., 60 to 70% relative humidity, 2 weeks): 1 µg/mL (≈ 3.65 µM); MIC (Sclerophoma pityophila): 0.75 µg/mL (≈ 2.74 µM); MIC (Aspergillus niger): 2.5 µg/mL (≈ 9.13 µM)
6 | – | 500 (≈ 2200 µM) | 200 (≈ 878 µM) | 50 (≈ 220 µM) | – | 50 (≈ 220 µM) | – | 35 (≈ 154 µM) | – | – | – | – | – | – | N#CC(Cl)=CS(=O)(=O)c1ccccc1 [α-Chloro-β-phenylsulphonyl-acrylonitrile, α-Chloro-β-phenylsulphonyl acrylonitrile, reference compound] | –
